The results in this text go back to ChEMBL document CHEMBL5532761, “Rosavin improves insulin resistance and alleviates hepatic and kidney damage via modulating the cGAS-STING pathway and autophagy signaling in HFD/STZ-induced T2DM animals” (2024).

Experiment [1] has as its system Rattus norvegicus. The experiment is described as follows: Antidiabetic activity in high fat diet-STZ induced diabetic Wistar rat model assessed as reduction in abnormal infiltrates in liver at 20 mg/kg, ip pretreated with high fat diet for 4 weeks followed by 8 hrs fasting after STZ administration and measured 4 weeks after compound treatment by hematoxylin and eosin staining based microscopic analysis. It counts as functional, organism-based.

For experiment [2], the system named is Rattus norvegicus. The experiment is described as follows: Antidiabetic activity in high fat diet-STZ induced diabetic Wistar rat model assessed as mean area percentage of LC3B in kidney at 20 mg/kg, ip pretreated with high fat diet for 4 weeks followed by 8 hrs fasting after STZ administration and measured after 4 weeks of compound treatment by immunohistochemistry based microscopic analysis (reference value: 2.47 +/- 0.356 %). The experiment is classed as functional.

Experiment [3] relates to Rattus norvegicus. Briefly: Antidiabetic activity in ip dosed high fat diet-STZ induced diabetic Wistar rat model assessed as reduction of miR-1976 expression in liver pretreated with high fat diet for 4 weeks followed by 8 hrs fasting after STZ administration and measured 4 weeks after compound treatment by RT-qPCR analysis. The experiment is classed as functional, organism-based. The settings on record: dose 10-30 mg/kg. (In general: Real-time PCR tracks product formation cycle by cycle.)

The test system of experiment [4] is Rattus norvegicus. The experiment is described as follows: Antidiabetic activity in ip dosed high fat diet-STZ induced diabetic Wistar rat model assessed as reduction of DDX58 mRNA expression in liver pretreated with high fat diet for 4 weeks followed by 8 hrs fasting after STZ administration and measured 4 weeks after compound treatment by RT-qPCR analysis. The experiment is classed as functional, organism-based. The settings on record: dose 10-30 mg/kg.

Experiment [5] deals with Rattus norvegicus. Briefly: Antidiabetic activity in ip dosed high fat diet-STZ induced diabetic Wistar rat model assessed as reduction of STING mRNA expression in liver pretreated with high fat diet for 4 weeks followed by 8 hrs fasting after STZ administration and measured 4 weeks after compound treatment by RT-qPCR analysis. The experiment is classed as functional, organism-based. As to conditions: dose 10-30 mg/kg.

Experiment [6] has as its system Rattus norvegicus. The experiment is described as follows: Antidiabetic activity in high fat diet-STZ induced diabetic Wistar rat model assessed as triglyceride level at 10 mg/kg, ip pretreated with high fat diet for 4 weeks followed by 8 hrs fasting after STZ administration and measured 4 weeks after compound treatment (reference value: 17.05 +/- 0.803 mmol/L). The experiment is classed as functional.

In experiment [7] the test system is Rattus norvegicus. Briefly: Antidiabetic activity in high fat diet-STZ induced diabetic Wistar rat model assessed as urine albumin to creatinine ratio at 20 mg/kg, ip pretreated with high fat diet for 4 weeks followed by 8 hrs fasting after STZ administration and measured 4 weeks after compound treatment (reference value: 87.13 +/- 9.75 mg/g). The experiment is classed as functional.

In experiment [8] the test system is Rattus norvegicus. Briefly: Antidiabetic activity in high fat diet-STZ induced diabetic Wistar rat model assessed as intact hepatocytes at 30 mg/kg, ip pretreated with high fat diet for 4 weeks followed by 8 hrs fasting after STZ administration and measured 4 weeks after compound treatment by hematoxylin and eosin staining based microscopic analysis. The experiment is classed as functional, organism-based.

Experiment [9] deals with Rattus norvegicus. The experiment is described as follows: Antidiabetic activity in high fat diet-STZ induced diabetic Wistar rat model assessed as insulin level in serum at 20 mg/kg, ip pretreated with high fat diet for 4 weeks followed by 8 hrs fasting after STZ administration and measured 4 weeks after compound treatment by ELISA (reference value: 16.53 +/- 1.14 microU/ml). It counts as functional. (ELISA stands for enzyme-linked immunosorbent assay.)

For experiment [10], the system named is Rattus norvegicus. The experiment is described as follows: Antidiabetic activity in high fat diet-STZ induced diabetic Wistar rat model assessed as reduction in luminal exfoliation of epithelial cells in kidney at 30 mg/kg, ip pretreated with high fat diet for 4 weeks followed by 8 hrs fasting after STZ administration and measured 4 weeks after compound treatment by hematoxylin and eosin staining based microscopic analysis. The experiment is classed as functional, organism-based.

Experiment [11] has as its system Rattus norvegicus. Briefly: Antidiabetic activity in high fat diet-STZ induced diabetic Wistar rat model assessed as organized histological features of hepatic parenchyma at 30 mg/kg, ip pretreated with high fat diet for 4 weeks followed by 8 hrs fasting after STZ administration and measured 4 weeks after compound treatment by hematoxylin and eosin staining based microscopic analysis. The experiment is classed as functional, organism-based.

Experiment [12] concerns Rattus norvegicus. The experiment is described as follows: Antidiabetic activity in high fat diet-STZ induced diabetic Wistar rat model assessed as reduction in inflammatory infiltrates in kidney at 30 mg/kg, ip pretreated with high fat diet for 4 weeks followed by 8 hrs fasting after STZ administration and measured 4 weeks after compound treatment by hematoxylin and eosin staining based microscopic analysis. It counts as functional, organism-based.

Experiment [13] relates to Rattus norvegicus. The experiment is described as follows: Antidiabetic activity in high fat diet-STZ induced diabetic Wistar rat model assessed as glucose level in serum at 10 mg/kg, ip pretreated with high fat diet for 4 weeks followed by 8 hrs fasting after STZ administration and measured 4 weeks after compound treatment (reference value: 527.7 +/- 49.1 mg%). The experiment is classed as functional.

Experiment [14] concerns Rattus norvegicus. The experiment is described as follows: Antidiabetic activity in high fat diet-STZ induced diabetic Wistar rat model assessed as reduction in adipocyte diameter in adipose tissue at 10 mg/kg, ip pretreated with high fat diet for 4 weeks followed by 8 hrs fasting after STZ administration and measured 4 weeks after compound treatment by hematoxylin and eosin staining based microscopic analysis. The experiment is classed as functional, organism-based.

Experiment [15] deals with Rattus norvegicus. The experiment is described as follows: Antidiabetic activity in ip dosed high fat diet-STZ induced diabetic Wistar rat model assessed as reduction of ZBP1 mRNA expression in kidney pretreated with high fat diet for 4 weeks followed by 8 hrs fasting after STZ administration and measured 4 weeks after compound treatment by RT-qPCR analysis. The experiment is classed as functional, organism-based. The settings on record: dose 10-30 mg/kg.

Experiment [16] has as its system Rattus norvegicus. Briefly: Antidiabetic activity in high fat diet-STZ induced diabetic Wistar rat model assessed as mean area percentage of LC3B in liver at 20 mg/kg, ip pretreated with high fat diet for 4 weeks followed by 8 hrs fasting after STZ administration and measured after 4 weeks of compound treatment by immunohistochemistry based microscopic analysis (reference value: 0.742 +/- 0.143 %). The experiment is classed as functional.

Experiment [17] concerns Rattus norvegicus. The experiment is described as follows: Antidiabetic activity in high fat diet-STZ induced diabetic Wistar rat model assessed as ALT level at 20 mg/kg, ip pretreated with high fat diet for 4 weeks followed by 8 hrs fasting after STZ administration and measured 4 weeks after compound treatment (reference value: 152.1 +/- 23.64 IU/L). It counts as functional.

Experiment [18] has as its system Rattus norvegicus. Briefly: Antidiabetic activity in high fat diet-STZ induced diabetic Wistar rat model assessed as cholesterol level at 30 mg/kg, ip pretreated with high fat diet for 4 weeks followed by 8 hrs fasting after STZ administration and measured 4 weeks after compound treatment (reference value: 10.39 +/- 1.3 mmol/L). It counts as functional.
Experiment [19] deals with Rattus norvegicus. The experiment is described as follows: Antidiabetic activity in high fat diet-STZ induced diabetic Wistar rat model assessed as HDL-cholesterol level at 20 mg/kg, ip pretreated with high fat diet for 4 weeks followed by 8 hrs fasting after STZ administration and measured 4 weeks after compound treatment (reference value: 0.688 +/- 0.288 mmol/L). The experiment is classed as functional.

The subject of experiment [20] is Rattus norvegicus. The experiment is described as follows: Antidiabetic activity in high fat diet-STZ induced diabetic Wistar rat model assessed as mean area percentage of LC3B in liver at 30 mg/kg, ip pretreated with high fat diet for 4 weeks followed by 8 hrs fasting after STZ administration and measured after 4 weeks of compound treatment by immunohistochemistry based microscopic analysis (reference value: 0.742 +/- 0.143 %). The experiment is classed as functional.

Experiment [21] concerns Rattus norvegicus. The experiment is described as follows: Antidiabetic activity in high fat diet-STZ induced diabetic Wistar rat model assessed as HOMA-IR level at 20 mg/kg, ip pretreated with high fat diet for 4 weeks followed by 8 hrs fasting after STZ administration and measured 4 weeks after compound treatment (reference value: 21.51 +/- 2.17). The experiment is classed as functional.

Experiment [22] has as its system Rattus norvegicus. The experiment is described as follows: Antidiabetic activity in high fat diet-STZ induced diabetic Wistar rat model assessed as HOMA-IR level at 10 mg/kg, ip pretreated with high fat diet for 4 weeks followed by 8 hrs fasting after STZ administration and measured 4 weeks after compound treatment (reference value: 21.51 +/- 2.17). It counts as functional.

Experiment [23] has as its system Rattus norvegicus. The experiment is described as follows: Antidiabetic activity in high fat diet-STZ induced diabetic Wistar rat model assessed as insulin level in serum at 30 mg/kg, ip pretreated with high fat diet for 4 weeks followed by 8 hrs fasting after STZ administration and measured 4 weeks after compound treatment by ELISA (reference value: 16.53 +/- 1.14 microU/ml). The experiment is classed as functional.

Activity calls are given as the source filed them. No cut-off for these calls is given here.

On to `O[C@@H]1[C@@H](O)[C@H](OC/C=C/c2ccccc2)O[C@H](CO[C@@H]2OC[C@H](O)[C@H](O)[C@H]2O)[C@H]1O`, for which the outcome with Rattus norvegicus [1], in the experiment on Rattus norvegicus [8], in the experiment on Rattus norvegicus [10], with Rattus norvegicus [11] and in the experiment on Rattus norvegicus [12] was Active. For the same compound, the Activity was 11.23% in the experiment on Rattus norvegicus [2]; “Dose-Dependent Effect” in the experiment on Rattus norvegicus [3]; “Dose-Dependent Effect” with Rattus norvegicus [4]; “Dose-Dependent Effect” with Rattus norvegicus [5]; 8.52 mmol/L in the experiment on Rattus norvegicus [6]; 33.38 mg/g with Rattus norvegicus [7]. Further, the Activity in the experiment with Rattus norvegicus [9] was 6.4 uU/ml; in the experiment with Rattus norvegicus [13], 227.7 mg%; in the experiment with Rattus norvegicus [15] it was “Dose-Dependent Effect”; in the experiment with Rattus norvegicus [16], 2.35%; with Rattus norvegicus [17], 42.38 IU/L; in the experiment on Rattus norvegicus [18], 3.15 mmol/L. Further, the Activity in the experiment on Rattus norvegicus [19] was 1.06 mmol/L; in the experiment with Rattus norvegicus [20], 13.3%; in the experiment on Rattus norvegicus [21], 2.76; in the experiment on Rattus norvegicus [22], 7.81; in the experiment on Rattus norvegicus [23], 5.64 uU/ml. Also, in the experiment with Rattus norvegicus [14], the result was inactive.
